# According to patent US20250017878A1 (Chronic Airway Therapeutics Limited, priority 2021, published 2025):
# Experiments:
# [1] = cited from earlier work
# [2] = cited from earlier work; remark: listed apart in the source
# β-arrestin pathway = experiment: Blockade of the β-arrestin pathway, Example 16 / FIG. 16; assay type: cell-based
# asthmatic mice [3] = experiment: Decrease in airway resistance (Raw) by period of administration, Example 8 / Table 2; assay type: in vivo
# Method: (§1) The periods of administration of the agents are 15 minutes, 2 days, and 28 days. […] This strongly supports the concept of combination therapy, such as with an inverse agonist and an agonist.
# [4] = test system: mucous metaplasia in sensitized/challenged mice; experiment: Mucous metaplasia in sensitized/challenged mice (photomicrographs), Example 10; assay type: in vivo; conditions: sensitized/challenged mice after treatment
# β2-adrenergic receptor [5] = experiment: Determination of β-adrenergic receptor density by radioligand (ICYP) binding in lung membranes of treated asthmatic mice, Example 2; assay type: in vivo; conditions: for change of the level of the β2-adrenergic receptor, in words: chronic treatment; for Apparent KD (of radioligand ICYP) / Bmax (β-adrenergic receptor density) / βmax (β-adrenergic receptor density): lung membranes; for Apparent KD (of radioligand ICYP): KD of ICYP binding, not of the drug; for Bmax (β-adrenergic receptor density) / βmax (β-adrenergic receptor density): mean ± SEM, n=3-5
# Method: β2-adrenergic receptor numbers were measured in asthmatic mice as follows. […] Mice were sacrificed and lung membranes were isolated as follows. Frozen lung tissue was homogenized in an ice-cold buffer containing 0.32 M sucrose and 25 mM Tris (pH 7.4) using a polytron (Pro 200, Pro Scientific, Inc.). The homogenate was centrifuged at 1000×g for 10 min at 4° C. The resulting supernatant was centrifuged at 40,000×g for 20 min at 4° C. The pellet was suspended in an ice-cold 25 mM Tris-HCl buffer (pH 7.4) and centrifuged at 40,000×g for 20 min at 4° C. The final pellet was suspended in 200 μL of 25 mM Tris-HCl (pH 7.4); membrane protein concentration was determined by BCA protein assay kit. […] The incubation was done at 37° C. for 2 h and terminated by rapid vacuum filtration through glass fiber filters. The filters were washed three times with 250 μL of cold wash buffer (25 mM Tris-HCl, pH 7.4) and the radioactivity determined in a counter. […] Receptor densities are expressed as femtomoles of sites per milligram of protein. Bmax is determined by nonlinear regression of the saturation binding curves. […] Please note that the 15-minute and 28-day time points refer to duration of drug treatment.
# β2-adrenergic receptor [6] = molecular target: β2-adrenergic receptor (Mus musculus, UniProt P18762); experiment: Upregulation of β2-adrenergic receptor density by period of administration, Example 8 / Table 2; assay type: in vivo, mice; parameters: from tissue
# Sequence of β2-adrenergic receptor (Mus musculus, UniProt P18762) (P18762 whole entry): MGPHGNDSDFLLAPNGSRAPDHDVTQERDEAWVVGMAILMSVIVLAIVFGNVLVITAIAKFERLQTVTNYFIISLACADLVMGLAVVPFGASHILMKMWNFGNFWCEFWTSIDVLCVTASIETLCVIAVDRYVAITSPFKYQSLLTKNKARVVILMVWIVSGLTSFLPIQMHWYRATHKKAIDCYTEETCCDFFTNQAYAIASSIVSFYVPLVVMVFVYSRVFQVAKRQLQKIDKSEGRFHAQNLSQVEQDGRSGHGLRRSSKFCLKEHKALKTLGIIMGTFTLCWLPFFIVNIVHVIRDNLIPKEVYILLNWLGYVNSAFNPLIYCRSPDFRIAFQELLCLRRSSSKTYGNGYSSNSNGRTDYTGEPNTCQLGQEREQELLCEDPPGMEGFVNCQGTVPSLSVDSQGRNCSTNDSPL
# Method: as §1
# [7] = test system: asthmatic mice (ovalbumin-sensitized and ovalbumin-challenged); experiment: Airway responsiveness to methacholine (airway resistance Raw, forced oscillation) in murine model of asthma, Example 1; assay type: in vivo, Balb/cJ mice; conditions: for airway responsiveness to methacholine provocation (Raw), chronic treatment: drug delivered for 28 days (chow or osmotic minipump); for airway responsiveness to methacholine provocation (Raw), acute treatment: single intravenous bolus 15 minutes before methacholine
# Method: The results obtained in drug-treated animals were compared with those obtained in vehicle-treated counterparts (controls) in experiments performed in close temporal relationship. […] Mice were sensitized with subcutaneous injection of 25 μg of ovalbumin adsorbed to aluminum hydroxide on protocol days 2, 9, and 16. Subsequently, mice were given 50 μL of saline solution containing 25 μg of ovalbumin intranasally, on a daily basis, from protocol days 23 through 27. A group of ovalbumin-sensitized saline-challenged mice serves as controls for systemic sensitization and respiratory challenges with ovalbumin. Prior to intranasal administrations, mice were sedated with halothane vapor. For the study of Example 1, ovalbumin-sensitized and ovalbumin-challenged mice, and ovalbumin-sensitized and saline-challenged mice will be referred to as asthmatic mice and control mice, respectively. […] To examine the effects of duration of β-adrenergic ligand therapy on the phenotype of the murine model of asthma, the experimental drugs were administered either acutely or chronically to different groups of asthmatic mice. […] These concentrations were chosen based on those producing therapeutic effects in mice in previously published studies. The non-asthmatic mice were fed normal chow. Salbutamol was delivered for 28 days at a dose of 0.5 mg/kg/day using an osmotic minipump (Alzet®, #2004, Durect Corporation, Cupertino, CA). […] Airway resistance (Raw) was measured using the forced oscillation technique. The cellular composition of bronchoalveolar lavage fluid (BALF) was also determined. […] However, it was observed that the degree of airway responsiveness and the number of eosinophils recovered in BALF were lower in non-treated asthmatic mice studied in close temporal relationship with mice receiving acute β-adrenergic antagonist treatments that in those obtained in non-treated asthmatic mice studied concomitantly with mice on chronic β-adrenergic antagonist therapy. […] The complex input impedance of the respiratory system was computed and the value of the real part of respiratory system impedance at 19.75 Hz was taken to reflect the magnitude of airway resistance (Raw). To examine the degree of airway responsiveness of each animal, the values for Raw as a function of methacholine doses were plotted. The largest value for Raw achieved in response to methacholine stimulation was referred to as […]. For mice that achieved a plateau in the methacholine dose-Raw response curve, the ED50 was calculated by linear interpolation using the GraphPad Prism4 (GraphPad Software, Inc.). Results obtained for β-adrenergic drug-treated and non-treated mice were performed using the analysis of variance for multiple groups of a Student's t-test for comparing two groups. The Bonferroni test was used to examine the statistical differences between experimental groups. The effects of acute drug treatments on baseline respiratory system mechanics were assessed using a two-tailed paired t-test. A value of P<0.05 was considered significant.
# asthmatic mice [8] = experiment: Chronic treatment with metoprolol and timolol on airway responsiveness in asthmatic mice, Example 9; assay type: in vivo; conditions: 7 days; metoprolol 20 mg/kg 3× daily s.c., timolol 20 mg/kg in chow; methacholine challenge
# Method: Airway resistance (Raw) was measured as in Example 1. The results were compared to historical controls as shown in FIG. 9B: Ctrl, no drug treatment, no challenge with methacholine; NTX, no drug treatment, challenged with methacholine.
# [9] = test system: asthmatic mice (ovalbumin-sensitized, challenged); experiment: Combination of carvedilol and salbutamol on airway hyperresponsiveness, Example 4; conditions: 28 days treatment; highest dose of methacholine
# Method: Mice (Balb/cJ) aged 6 weeks were housed under specific pathogen-free conditions and fed a chicken ovalbumin-free diet. Mice were systemically sensitized with ovalbumin adsorbed to aluminum hydroxide.
# To induce airway constriction, a solution containing 150 μg/mL of methacholine was infused using a syringe infusion pump. […] Each methacholine dose was administered until a plateau was reached, during which data were sampled at 1-minute intervals for 3-5 minutes and then averaged.
# asthmatic mice [10] = experiment: β-adrenergic receptor drugs at low and high doses on airway resistance, Example 7; assay type: in vivo; conditions: chronic administration in chow, high and low dose
# Method: For these experiments, salbutamol was used for chronic administration at 0.5 mg/kg/day with a minipump and for acute administration at 0.15 mg/kg by i.v. bolus 15 minutes prior to challenge. […] Carvedilol was used at a high dose of 2400 ppm in chow or at a low dose of 720 ppm in chow. […] In these diagrams, Ctrl=control mice, non-asthmatic, non-drug treated; NTX=asthmatic mice, non-drug treated; AC=acute administration; 2d=chronic administration for 2 days; 28d=chronic administration for 28 days. The airway resistance (Raw) is plotted as cm H2O ml^−1 s.
Structure (SMILES),block of the β-arrestin pathway (β-arrestin pathway),Decreased Raw (asthmatic mice [3]; 15 minutes administration),Decreased Raw (asthmatic mice [3]; 2 days administration),Decreased Raw (asthmatic mice [3]; 28 days administration),Apparent KD (of radioligand ICYP) (β2-adrenergic receptor [5]; drug treatment 15 Minutes),Bmax (β-adrenergic receptor density) (β2-adrenergic receptor [5]; drug treatment 15 Minutes),Apparent KD (of radioligand ICYP) (β2-adrenergic receptor [5]; drug treatment 28 Days),βmax (β-adrenergic receptor density) (β2-adrenergic receptor [5]; drug treatment 28 Days),Increased β2AR density (β2-adrenergic receptor [6]; 15 minutes administration),Increased β2AR density (β2-adrenergic receptor [6]; 2 days administration),Increased β2AR density (β2-adrenergic receptor [6]; 28 days administration),"airway responsiveness to methacholine provocation (Raw), chronic treatment [7]","airway responsiveness to methacholine provocation (Raw), acute treatment [7]",other results
CC(C)(C)NCC(O)c1cc(O)cc(O)c1 (stereo not drawn) [terbutaline],,,,,,,,,,,,,,increase of bioavailability by the oral component ([1]; from an MDI): 6.7%; absorption through the lung ([1]; healthy smokers versus healthy nonsmokers): more rapidly in healthy smokers than in healthy nonsmokers
C[C@@H]1C[C@H]2[C@@H]3C[C@H](F)C4=CC(=O)C=C[C@]4(C)[C@@]3(F)[C@@H](O)C[C@]2(C)[C@@]1(O)C(=O)SCF [fluticasone],,,,,,,,,,,,,,first-pass hepatic metabolism of the systemically absorbed drug ([2]; inhaled drug): almost complete
CC(C)NCC(O)COc1cccc2ccccc12 (stereo not drawn) [propranolol],did not block the β-arrestin pathway,,,,,,,,,,,,,
OCc1cc(C(O)CNCCCCCCOCCCCc2ccccc2)ccc1O (stereo not drawn) [salmeterol],,,,,,,,,,,,,,time in which the majority of a dose is eliminated in the feces ([1]; in vivo): ≤ 72 h
CCCC1O[C@@H]2C[C@H]3[C@@H]4CCC5=CC(=O)C=C[C@]5(C)[C@H]4[C@@H](O)C[C@]3(C)[C@]2(C(=O)CO)O1 (stereo partly drawn) [budesonide],,,,,,,,,,,,,,"plasma clearance of the two enantiomers per kilogram bodyweight, children with asthma higher than healthy adults ([2]; 6 children with asthma versus 11 healthy adults): about 50%; elimination half-life ([2]; in vivo): 2.8 ± 1.1 h; plasma clearance ([2]; in vivo): 84 ± 27 L/h; plasma clearance relative to average clearance of prednisolone ([2]; in vivo): about 10 fold; systemic availability of the swallowed fraction ([2]; in vivo): 10.7±4.3%"
"C=CCc1ccccc1OCC(O)CNC(C)C (stereo not drawn) [Alprenolol, alprenolol]",did not block the β-arrestin pathway,yes,no,no,(453.6 ± 86.33) pM,299.5 ± 12.19 femtomoles of sites per milligram of protein,(290.9 ± 55.07) pM,179.2 ± 53.05 femtomoles of sites per milligram of protein,yes,no,no,provides no benefit upon chronic administration,airway responsiveness was diminished,"mucous metaplasia [4]: no improvement in mucous metaplasia; change of the level of the β2-adrenergic receptor, in words (β2-adrenergic receptor [5]): slight decrease of the level of the 2-adrenergic receptor"
"CC(C)(C)NCC(O)c1ccc(O)c(CO)c1 (stereo not drawn) [Salbutamol, salbutamol]",,yes,no,no,(228.8 ± 33.07) pM,256.5 ± 29.24 femtomoles of sites per milligram of protein,(225.4 ± 41.79) pM,97.0 ± 23.02 femtomoles of sites per milligram of protein,yes,no,no,no protection was observed,reduced the level of airway responsiveness to methacholine provocation and the level of airway resistance,"change of the level of the β2-adrenergic receptor, in words (β2-adrenergic receptor [5]): slight decrease; bioavailability of inhaled drug ([1]; 10 patients with cystic fibrosis versus healthy adults): greater than that in healthy adults"
COCCc1ccc(OCC(O)CNC(C)C)cc1 (stereo not drawn) [metoprolol],,,,,,,,,,,,,,airway hyperresponsiveness after chronic treatment (asthmatic mice [8]): effective in reducing airway hyperresponsiveness in asthmatic mice
"COc1ccccc1OCCNCC(O)COc1cccc2[nH]c3ccccc3c12 (stereo not drawn) [Carvedilol, carvedilol]",did not block the β-arrestin pathway,no,no,yes,(565.2 ± 192.8) pM,86.3 ± 19.42 femtomoles of sites per milligram of protein,(1444.0 ± 202.0) pM,904.1 ± 43.46 femtomoles of sites per milligram of protein,no,no,yes,reduced the responsiveness of asthmatic mice to methacholine provocation,enhanced the airway responsiveness in the asthmatic mice,"increase of the level of β2-adrenergic receptors over the non-treated mice (β2-adrenergic receptor [5]; chronic administration, versus untreated methacholine-challenged asthmatic mice): over 10 fold; bronchoconstriction / airway hyperresponsiveness to allergen and methacholine challenge [9]: higher bronchoconstriction than these treatments but less than the non-drug treated sensitized and challenged (NTX S/C) mice; protection from airway hyperresponsiveness (asthmatic mice [10]): providing protection from airway hyperresponsiveness with chronic administration"
CC(C)(C)NC[C@H](O)COc1nsnc1N1CCOCC1 [timolol],,,,,,,,,,,,,,airway hyperresponsiveness after chronic treatment (asthmatic mice [8]): effective in reducing airway hyperresponsiveness in asthmatic mice
